Experimental data published in patent US5998420A, “Method for treating Mycobacterium tuberculosis” (priority 1996, dated 1999).
In brackets after ≈: the same amount, converted by molar mass. Like-named read-outs stand apart in the source and are kept apart here.

Legend:
[1] = system: Mycobacterium tuberculosis; conditions: Heifets L. B. (1994); cited from earlier work
[2] = system: Mycobacterium tuberculosis; conditions: cited from earlier work; for change in final colony forming units vs starting: Klemens et al., 1994
yeast = conditions: minimal media; cited from earlier work
[3] = system: yeast isopropylmalate isomerase; conditions: cited from earlier work; for inhibition of yeast isopropylmalate isomerase, 19 vs 21: fully ionized, nitronate forms
[4] = cited from earlier work; for decomposition (retro-aldol): in the presence of divalent metals, unpublished observation
[5] = type: in vivo, CD-1 female mice; conditions: 500 mg/kg body weight subcutaneous each day for 30 days
Procedure: To determine if high doses of sulfometuron methyl would be toxic to mice, a 20 mg/ml solution of this compound was prepared in phosphate buffered saline and 0.5 ml of this was injected subcutaneously into 4 day-old CD-1 female mice each day for 30 days. This dose corresponded to 500 mg sulfometuron methyl/kg body weight of the mouse. After the 30-day course of treatment the mice were sacrificed and the internal organs were examined by a veterinarian trained in laboratory animal care. The organs were compared to a control group that received injections of phosphate buffered saline.

[6] = system: Mycobacterium tuberculosis strain RC1; experiment: MIC by agar dilution, M. tuberculosis strain RC1; type: cell-based; conditions: for MIC: Mycobacterium tuberculosis, RC1; for effect of LIV addition on toxicity, strain RC1: strain RC1, LIV added
[7] = system: Mycobacterium tuberculosis strain ATCC35801; experiment: Tuberculosis mouse model study, colony forming units in lungs and spleens; type: in vivo, mice
[8] = system: Mycobacterium tuberculosis strain ATCC35801; experiment: MIC by agar dilution, M. tuberculosis strain ATCC35801; type: cell-based; conditions: for MIC: Mycobacterium tuberculosis, ATCC35801; for effect of LIV addition on toxicity, strain ATCC35801: strain ATCC35801, LIV added
plants = conditions: leucine alone; cited from earlier work
[9] = system: ketol-acid reductoisomerase; conditions: cited from earlier work
[10] = system: dihydroxy acid dehydratase from E. coli; conditions: 1 mM; cited from earlier work
[11] = system: acetolactate synthase from E. coli; conditions: 1 mM; cited from earlier work
[12] = system: E. coli ketol-acid reductoisomerase; conditions: presence of Mg2+ and NADPH; read-out: overall dissociation constant; cited from earlier work
[13] = system: E. coli ketol-acid reductoisomerase; conditions: cited from earlier work
[14] = system: ketol-acid reductoisomerase from Klebsiella pneumoniae; conditions: cited from earlier work
K. pneumoniae = conditions: cited from earlier work
E. coli = conditions: minimal media; cited from earlier work
[15] = system: ketol-acid reductoisomerase from carrot (plant); conditions: cited from earlier work
carrot cells = conditions: branched chain amino acids; cited from earlier work
[16] = leucine, isoleucine, and valine added (+LIV), read-out: MIC +LIV, strain RC1
[17] = no branched chain amino acids (-LIV), read-out: MIC -LIV, strain RC1
[18] = leucine, isoleucine, and valine added (+LIV)
[19] = no branched chain amino acids (-LIV)

In the case of `CO[C@H]1/C=C/O[C@@]2(C)Oc3c(C)c(O)c4c(O)c(c(/C=N/N5CCN(C)CC5)c(O)c4c3C2=O)NC(=O)/C(C)=C\C=C\[C@H](C)[C@H](O)[C@@H](C)[C@@H](O)[C@@H](C)[C@H](OC(C)=O)[C@@H]1C` [Rifampicin], the “MIC of first-line anti-tuberculosis drugs” value [1] is given as 0.5 µg/mL and the “change in final colony forming units vs starting” value (from here on “change”) [2] is given as “caused a decrease”.

For `CC(C)C(O)(C[N+](=O)[O-])C(=O)O` (centres unmarked) [Compound 20], the growth of yeast (yeast) is given as “no affect”, the “inhibition of yeast isopropylmalate isomerase” value [3] is given as “potent inhibitors” and the “decomposition (retro-aldol)” value [4] is given as “rapid rate”.

For `COC(=O)c1ccccc1S(=O)(=O)NC(=O)Nc1nc(C)cc(C)n1` [SM, sulfometuron methyl], the “behavior of the mice and condition of the internal organs vs PBS” value [5] was “No significant differences”, the MIC [6, 16] was 1.8 µg/mL (≈ 4.94 µM) and the MIC [6, 17] was 0.3 µg/mL (≈ 0.823 µM). For the same compound, the MIC ([6]; read-out: minimum inhibitory concentration, medium supplemented with bovine serum albumin) was 4.4 µg/mL (≈ 12.1 µM), the MIC ([6]; read-out: minimum inhibitory concentration, medium supplemented with sodium oleate and bovine serum albumin) was 2.2 µg/mL (≈ 6.04 µM) and the “effect of LIV addition on toxicity, strain RC1” value (“effect … strain RC1” below) [6] was “partially reduced the toxicity”. The “effect of isoleucine and valine addition on inhibition” value ([6]; strain RC1, isoleucine and valine added) was “did not prevent inhibition”, the “Mann-Whitney U test, 2-tailed P, lungs” value ([7]; 20 mg/kg and 100 mg SM/kg) was 0.31 and the “Mann-Whitney U test, 2-tailed P, lungs” value ([7]; 20 mg/kg and 500 mg SM/kg) was 0.002. For the same compound, the “Mann-Whitney U test, 2-tailed P, lungs” value ([7]; 100 mg/kg and 500 mg SM/kg) was 0.009, the “mice with more than 200 colony forming units in the lungs” value ([7]; 500 mg sulfometuron methyl/kg, lungs, 31 days) was “none” and the “mice with more than 10^3 colony forming units/spleen, 500 mg/kg” value ([7]; 500 mg sulfometuron methyl/kg, spleen) was 13%. For the same compound, the “growth of Mycobacterium tuberculosis in the lungs” value ([7]; 500 mg/kg body weight) was “significantly reduced growth”, the “Mann-Whitney U test, 2-tailed P, lungs” value ([7]; PBS and 20 mg SM/kg) was 0.39 and the “Mann-Whitney U test, 2-tailed P, lungs” value ([7]; PBS and 100 mg SM/kg) was 0.65. The “Mann-Whitney U test, 2-tailed P, lungs” value ([7]; PBS and 500 mg SM/kg) was 0.03, the “growth of Mycobacterium tuberculosis in a mouse model system” value ([7]; mouse, in vivo) was “inhibites growth” and the “Kruskal-Wallis test, P, spleen” value ([7]; overall difference between four groups, spleen, P < 0.05 considered significant) was greater than 0.05. For the same compound, the “mice with more than 10^3 colony forming units in the lungs” value ([7]; pooled groups PBS, 20 mg/kg and 100 mg/kg SM, lungs, 31 days) was 65%, the “mice with over 10^3 colony forming units/spleen, pooled groups” value ([7]; pooled groups PBS, 20 mg/kg and 100 mg/kg SM, spleen) was 52% and the MIC [8, 18] was greater than 3.6 µg/mL. The MIC [8, 19] was 3.6 µg/mL (≈ 9.88 µM) and the “effect of LIV addition on toxicity, strain ATCC35801” value [8] was “prevented the toxicity”.

For `O=C(O)C1(O)CCCC1[N+](=O)[O-]` (centres unmarked) [Compound 21], the “reversal of herbicidal activity” value (plants) is given as “reversed by leucine alone”, the “inhibition of yeast isopropylmalate isomerase, 19 vs 21” value [3] is given as “comparable” and the “inhibition of isopropylmalate isomerase, 21 vs 19” value ([3]; physiological conditions (pH 7)) is given as “much more potent inhibitor than 19”. For the same compound, the “stability of the molecule” value ([4]; cyclopentane ring of 21) was “insures stability of the molecule”.

For `CC(C)N(O)C(=O)C(=O)O` [IpOHA, N-Isopropyloxayl hydroxamate], the “inhibition of ketol-acid reductoisomerase” value [9] is listed as “potent inhibitors”, the “effect on dihydroxy acid dehydratase” value [10] is listed as “no effect” and the MIC [6, 16] is listed as 9.2 µg/mL (≈ 62.5 µM). For the same compound, the MIC [6, 17] was 9.2 µg/mL (≈ 62.5 µM), the “effect … strain RC1” value [6] was “did not reverse the toxic effects” and the “effect on acetolactate synthase” value [11] was “no effect”. The MIC [8, 18] was greater than 18 µg/mL, the MIC [8, 19] was 18 µg/mL (≈ 122 µM) and the “effect of LIV addition on toxicity, strain ATCC35801” value [8] was “decreased the toxicity”. For the same compound, the Kd [12] was 0.02 nM.

In the case of `O=C(O)C(=O)N(O)Cc1ccccc1` [Compound 13], the “association rate for the inhibitor, benzyl (13) vs hydrogen (9) on nitrogen” value ([13]; relative to 9) is listed as “increased the association rate for the inhibitor modestly”.

For `CCCCCCCCCCCCN(O)C(=O)C(=O)O` [Compound 14], the “potency relative to 13” value ([13]; 12-carbon chain on nitrogen, Aulabaugh & Schloss, unpublished) is given as “comparable in potency to 13”.

For `NC(=O)c1cnccn1` [Pyrazinamide], the “MIC of first-line anti-tuberculosis drugs” value [1] is given as 16 µg/mL and the “change” value [2] is given as “did not cause a decrease”.

In the case of `NNC(=O)c1ccncc1` [Isoniazid], the “MIC of first-line anti-tuberculosis drugs” value [1] is listed as 0.2 µg/mL, the “Mycobacterium tuberculosis in spleens and lungs of mice” value ([2]; 25 mg/kg (Lalande et al., 1993)) is listed as “significantly reduced” and the “change” value [2] is listed as “caused a decrease”.

For `CC(C)C(C(O)C(=O)O)[N+](=O)[O-]` (centres unmarked) [Compound 19], the growth of yeast (yeast) is listed as “no affect”, the “inhibition of yeast isopropylmalate isomerase” value [3] is listed as “potent inhibitors” and the “inhibition of yeast isopropylmalate isomerase, 19 vs 21” value [3] is listed as “comparable”. The “decomposition (retro-aldol)” value [4] was “rapid rate”.

In the case of `COc1nc(C)nc(NC(=O)NS(=O)(=O)c2ccccc2Cl)n1` [Chlorsulfuron], the MIC [6, 16] is reported as greater than 35 µg/mL, the MIC [6, 17] is reported as 4.4 µg/mL (≈ 12.3 µM) and the “effect … strain RC1” value [6] is reported as “completely reversed the effects”.

In the case of `CP(C)(=O)C(O)C(=O)O` (centres unmarked) [Hoe 704, 2-dimethylphosphinoyl-2-hydroxy acetic acid], the “inhibition of ketol-acid reductoisomerase” value [9] is given as “potent inhibitors”, the “inhibition of Klebsiella pneumoniae ketol-acid reductoisomerase” value [14] is given as “potent and selective inhibitor” and the “reversal of growth inhibitory effect on K. pneumoniae” value (K. pneumoniae; branched chain amino acids and pantoate) is given as “requires both branched chain amino acids and pantoate”. The “growth of K. pneumoniae” value (K. pneumoniae) was “does inhibit the growth”, the MIC [6, 17] was greater than 37 µg/mL and the “growth inhibition of E. coli” value (E. coli) was “does not inhibit the growth”. For the same compound, the “inhibition of carrot ketol-acid reductoisomerase” value [15] was “potent and selective inhibitor”, the “inhibition of E. coli ketol-acid reductoisomerase” value ([13]; Hoe 704) was “potent and selective inhibitor” and the “reversal of effect on carrot cells in culture” value (carrot cells) was “can be reversed by branched chain amino acids alone”.

For `[H]/N=C(/N)N[C@H]1[C@H](O)[C@@H](O)[C@H](O[C@@H]2O[C@@H](C)[C@](O)(C=O)[C@H]2O[C@@H]2O[C@@H](CO)[C@H](O)[C@@H](O)[C@@H]2NC)[C@@H](N/C(N)=N\[H])[C@@H]1O` [Streptomycin], the “MIC of first-line anti-tuberculosis drugs” value [1] is listed as 3 µg/mL.

For `CC[C@@H](CO)NCCN[C@@H](CC)CO` [Ethambutol], the “MIC of first-line anti-tuberculosis drugs” value [1] is listed as 2 µg/mL and the “change” value [2] is listed as “did not cause a decrease”.
